Laboratory results taken from US20230321261A1, “AXL-SPECIFIC ANTIBODY-DRUG CONJUGATES FOR CANCER TREATMENT” (GENMAB A/S, priority 2016, published 2023).
pIC50: −log10 of the molar value. Values joined by “and” are separate entries in the source; they are usually repeats but may differ in a detail not shown here. Equal values may be shown once.

Experiments:
MEK½ = tested on: T1, MEK½; conditions: Pheneger et al., 2006; read-out: Primary Target(s) (IC50): MEK½; cited from earlier work
T1 construct: other: Pheneger et al., 2006

MEK1 = MEK1 (Homo sapiens, UniProt Q02750); conditions: read-out: Primary Target(s) (IC50): MEK1; cited from earlier work
Sequence of MEK1 (Q02750 whole entry): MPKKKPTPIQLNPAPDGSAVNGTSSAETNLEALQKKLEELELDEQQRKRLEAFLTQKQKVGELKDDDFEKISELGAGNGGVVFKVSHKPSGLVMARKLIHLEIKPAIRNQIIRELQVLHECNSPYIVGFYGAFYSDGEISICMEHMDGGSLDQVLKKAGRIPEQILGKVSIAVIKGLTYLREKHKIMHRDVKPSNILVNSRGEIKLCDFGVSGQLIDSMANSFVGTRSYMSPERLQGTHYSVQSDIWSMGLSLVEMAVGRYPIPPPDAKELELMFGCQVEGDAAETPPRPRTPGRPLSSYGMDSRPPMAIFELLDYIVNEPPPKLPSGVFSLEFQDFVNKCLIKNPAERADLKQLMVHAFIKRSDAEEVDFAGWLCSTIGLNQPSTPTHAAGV

BLM = assay: NRAS mutant melanoma cell viability (CellTiter-Glo); assay type: cell-based, human
SKMEL28 = assay: Melanoma cell viability (CellTiter-Glo); assay type: cell-based, human; conditions: for HuMax-AXL-ADC sensitivity: 0.0001 to 10 µg/mL, 5 days
FM6 = assay: NRAS mutant melanoma cell viability (CellTiter-Glo); assay type: cell-based, human
SKMEL28R = assay: Melanoma cell viability (CellTiter-Glo); assay type: cell-based, human; conditions: for HuMax-AXL-ADC sensitivity: 0.0001 to 10 µg/mL, 5 days
A875 = assay: Melanoma cell viability (CellTiter-Glo); assay type: cell-based, human; conditions: for HuMax-AXL-ADC sensitivity: 0.0001 to 10 µg/mL, 5 days
M019R = assay: Patient-derived melanoma culture viability (CellTiter-Glo); assay type: cell-based, human
A375R = assay: Melanoma cell viability (CellTiter-Glo); assay type: cell-based, human
M082 = assay: Patient-derived melanoma culture viability (CellTiter-Glo); assay type: cell-based, human; conditions: for HuMax-AXL-ADC sensitivity: 8 days
SKMEL2R = assay: NRAS mutant melanoma cell viability (CellTiter-Glo); assay type: cell-based, human
M016 = assay: Patient-derived melanoma culture viability (CellTiter-Glo); assay type: cell-based, human; conditions: for HuMax-AXL-ADC sensitivity: 8 days
SKMEL2 = assay: NRAS mutant melanoma cell viability (CellTiter-Glo); assay type: cell-based, human
SKMEL147 = assay: Melanoma cell viability (CellTiter-Glo); assay type: cell-based, human; conditions: for HuMax-AXL-ADC sensitivity: 0.0001 to 10 µg/mL, 5 days
C-Raf/BRAF/BRAF V600E = conditions: read-out: Primary Target(s) (IC50): C-Raf/BRAF/BRAF V600E; Mordant et al., 2010; cited from earlier work
C-Raf = C-Raf (Homo sapiens, UniProt P04049); conditions: literature reference per drug in Table 1; read-out: Primary Target(s) (IC50): C-Raf (also printed Raf-1, C-Raf-1, C-RAF); cited from earlier work
Sequence of C-Raf (P04049 whole entry): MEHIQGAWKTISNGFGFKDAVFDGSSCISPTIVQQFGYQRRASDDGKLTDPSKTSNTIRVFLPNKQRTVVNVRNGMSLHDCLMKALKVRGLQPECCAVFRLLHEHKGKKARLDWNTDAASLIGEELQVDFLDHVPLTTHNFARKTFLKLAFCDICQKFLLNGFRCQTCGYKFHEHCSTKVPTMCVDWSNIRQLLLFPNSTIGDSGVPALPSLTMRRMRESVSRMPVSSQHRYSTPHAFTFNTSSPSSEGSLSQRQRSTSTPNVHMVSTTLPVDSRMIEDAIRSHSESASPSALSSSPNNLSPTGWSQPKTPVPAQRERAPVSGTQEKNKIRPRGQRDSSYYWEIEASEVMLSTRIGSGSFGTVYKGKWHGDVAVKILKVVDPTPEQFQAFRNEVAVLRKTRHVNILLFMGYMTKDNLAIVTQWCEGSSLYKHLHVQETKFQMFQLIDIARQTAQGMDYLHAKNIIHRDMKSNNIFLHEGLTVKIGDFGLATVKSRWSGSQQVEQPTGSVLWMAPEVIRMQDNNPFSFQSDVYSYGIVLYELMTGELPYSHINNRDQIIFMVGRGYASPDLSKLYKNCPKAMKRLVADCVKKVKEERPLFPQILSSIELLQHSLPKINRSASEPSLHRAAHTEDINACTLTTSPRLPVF

MAP4K5 (KHS1) = MAP4K5 (KHS1) (Homo sapiens, UniProt Q9Y4K4); conditions: Bollag et al., 2010; read-out: Primary Target(s) (IC50): MAP4K5 (KHS1); cited from earlier work
Sequence of MAP4K5 (KHS1) (Q9Y4K4 whole entry, species assumed): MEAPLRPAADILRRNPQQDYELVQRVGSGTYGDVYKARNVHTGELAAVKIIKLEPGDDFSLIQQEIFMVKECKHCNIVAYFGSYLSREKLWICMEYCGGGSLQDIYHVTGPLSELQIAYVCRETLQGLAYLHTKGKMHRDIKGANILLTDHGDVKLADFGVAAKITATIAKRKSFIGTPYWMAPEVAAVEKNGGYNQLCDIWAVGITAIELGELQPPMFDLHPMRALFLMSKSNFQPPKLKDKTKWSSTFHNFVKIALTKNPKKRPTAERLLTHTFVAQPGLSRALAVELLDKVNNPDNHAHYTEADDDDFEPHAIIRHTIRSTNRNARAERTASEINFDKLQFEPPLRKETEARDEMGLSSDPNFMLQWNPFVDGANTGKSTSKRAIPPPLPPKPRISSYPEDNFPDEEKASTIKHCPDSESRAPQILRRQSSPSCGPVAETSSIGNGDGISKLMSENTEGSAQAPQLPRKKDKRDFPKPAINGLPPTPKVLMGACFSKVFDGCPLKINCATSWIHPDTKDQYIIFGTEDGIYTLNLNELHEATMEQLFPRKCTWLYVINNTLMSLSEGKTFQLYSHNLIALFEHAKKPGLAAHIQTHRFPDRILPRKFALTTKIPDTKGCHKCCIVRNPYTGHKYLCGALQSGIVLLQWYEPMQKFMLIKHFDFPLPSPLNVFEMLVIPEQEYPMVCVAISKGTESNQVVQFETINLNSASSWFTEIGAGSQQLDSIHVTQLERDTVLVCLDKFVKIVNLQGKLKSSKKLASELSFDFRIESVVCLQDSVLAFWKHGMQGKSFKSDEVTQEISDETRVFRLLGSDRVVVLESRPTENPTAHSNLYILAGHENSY

[1] = tested on: LCLC-103H xenograft tumors; assay: LCLC-103H xenograft model; assay type: in vivo, SCID mice
Description: 5 × 10^6 LCLC-103H (large cell lung carcinoma) tumor cells (obtained from Leibniz-Institut DSMZ-Deutsche Sammlung von Mikroorganismen und Zellkulturen GmbH (DSMZ)) in 200 µL PBS were injected subcutaneously in the right flank of female SCID mice. Starting 14-21 days after tumor cell inoculation, when the average tumor size was >100-200 mm^3 and distinct tumor growth was observed, a single injection with 1 mg/kg (20 µg/mouse) IgG1-AXL-vcMMAE antibodies (as described in Supplementary Example 1) or control (unconjugated IgG1-b12) was given intraperitoneally (100 µL/mouse). Tumor volume was determined at least two times per week. Tumor volumes (mm^3) were calculated from caliper (PLEXX) measurements as: 0.52 × (length) × (width)^2.
Tumor induction was performed by subcutaneous injection of 5 × 10^6 A431 or LCLC-103H tumor cells (both obtained from Leibniz-Institut - Deutsche Sammlung von Mikroorganismen und Zellkulturen GmbH (DSMZ)) in 200 µL PBS in the right flank of female SCID mice. Treatment was started 14-21 days after tumor cell inoculation, when the average tumor size was >100-200 mm^3 and distinct tumor growth was observed. […] Tumor volume was determined at least two times per week. Tumor volumes (mm^3) were calculated from caliper (PLEXX) measurements as: 0.52 × (length) × (width)^2.

PAXF1657 tumors = assay: PAXF1657 pancreas cancer PDX model; assay type: in vivo, NMRI nu/nu mice; conditions: day 0
A431 tumors = assay: A431 xenograft model (high Gas6); assay type: in vivo, SCID mice; conditions: 3 mg/kg
Description: Tumor induction was performed by subcutaneous injection of 5 × 10^6 A431 or LCLC-103H tumor cells (both obtained from Leibniz-Institut - Deutsche Sammlung von Mikroorganismen und Zellkulturen GmbH (DSMZ)) in 200 µL PBS in the right flank of female SCID mice. Treatment was started 14-21 days after tumor cell inoculation, when the average tumor size was >100-200 mm^3 and distinct tumor growth was observed. Mice received a single injection or a total of 4 biweekly intraperitoneal injections with IgG1-AXL-vcMMAE ADCs or control antibody (unconjugated IgG1-b12), as indicated. Tumor volume was determined at least two times per week. Tumor volumes (mm^3) were calculated from caliper (PLEXX) measurements as: 0.52 × (length) × (width)^2.

COLO679 = assay: Melanoma cell viability (CellTiter-Glo); assay type: cell-based, human; conditions: 0.0001 to 10 µg/mL, 5 days
SKMEL147 tumors = assay: SKMEL147 melanoma xenograft model; assay type: in vivo, NMRI nude mice
A431 cells = assay: Antibody-dependent cell-mediated cytotoxicity (51Cr release); assay type: cell-based, human; conditions: concentrations up to 10 µg/mL; PBMC effector to target ratio 100:1
Description: The ability of anti-AXL antibodies to induce ADCC of A431 epidermoid carcinoma cells was determined as explained below. As effector cells, peripheral blood mononuclear cells from healthy volunteers (UMC Utrecht, The Netherlands) were used.
A431 cells were collected (5×10^6 cells) in culture medium (RPMI 1640 culture medium supplemented with 10% fetal calf serum (FSC)), to which 100 µCi ^51Cr (Chromium-51; Amersham Biosciences Europe GmbH, Roosendaal, The Netherlands) had been added, and the mixture was incubated in a 37° C. water bath for 1 hour (hr) while shaking. After washing of the cells (twice in PBS, 1200 rpm, 5 min), the cells were resuspended in RPMI1640/10% FSC and counted by trypan blue exclusion. […]
Peripheral blood mononuclear cells (healthy volunteers, UMC Utrecht, Utrecht, The Netherlands) were isolated from 45 mL of freshly drawn heparin blood by Ficoll (Bio Whittaker; lymphocyte separation medium, cat 17-829E) according to the manufacturer’s instructions. After resuspension of cells in RPMI1640/10% FSC, cells were counted by trypan blue exclusion and diluted to a density of 1×10^7 cells/mL.
50 µl of ^51Cr-labeled targets cells were pipetted into 96-well plates, and 50 µl of antibody were added, diluted in RPMI1640/10% FSC (3-fold dilutions at final concentrations range 0.01-10 µg/mL). […] The percentage specific lysis was calculated as follows: […]

[2] = 4 mg/kg i.v. on day 12 and day 19 after tumor cell injection

Cn1cnc2c(F)c(Nc3ccc(Br)cc3F)c(C(=O)NOCCO)cc21 [Binimetinib, 1H-Benzimidazole-6-carboxamide, 5-[(4-bromo-2-fluorophenyl)amino]-4-fluoro-N-(2-hydroxyethoxy)-1-methyl-]
pIC50 (MEK½): ~7.92 and 7.92

O=C(c1ccc(F)c(F)c1Nc1ccc(I)cc1F)N1CC(O)([C@@H]2CCCCN2)C1 [Cobimetinib, [3,4-difluoro-2-[(2-fluoro-4-iodophenyl)amino]phenyl][3-hydroxy-3-(2S)-2-piperidinyl-1-azetidinyl]-methanone]
pIC50 (MEK1): ~8.38

CCCS(=O)(=O)Nc1ccc(F)c(C(=O)c2c[nH]c3ncc(Cl)cc23)c1F [PLX4720, N-(3-(5-chloro-1H-pyrrolo[2,3-b]pyridine-3-carbonyl)-2,4-difluorophenyl)propane-1-sulfonamide]
PLX4720 sensitivity (BLM): insensitive
PLX4720 sensitivity (SKMEL28): sensitive
PLX4720 sensitivity (FM6): insensitive
PLX4720 sensitivity (SKMEL28R): resistant
PLX4720 sensitivity (A875): sensitive
PLX4720 sensitivity (M019R; M019R (Table 16)): resistant
drug sensitivity in vitro: PLX4720 sensitivity (M019R; M019R, 8 days): insensitive
PLX4720 sensitivity (A375R): resistant
PLX4720 sensitivity (M082): resistant
PLX4720 sensitivity (SKMEL2R): insensitive
PLX4720 sensitivity (M016): resistant
PLX4720 sensitivity (SKMEL2): insensitive
PLX4720 sensitivity (SKMEL147): resistant

Cn1c(Nc2ccc(C(F)(F)F)cc2)nc2cc(Oc3ccnc(-c4ncc(C(F)(F)F)[nH]4)c3)ccc21 [RAF265, 1-methyl-5-[2-[5-(trifluoromethyl)-1H-imidazol-2-yl]pyridin-4-yl]oxy-N-[4-(trifluoromethyl)phenyl]benzimidazol-2-amine]
pIC50 (C-Raf/BRAF/BRAF V600E): 7.22 to 8.52

CN(C)CCOc1ccc(-c2nc(-c3ccncc3)c(-c3ccc4c(c3)CC/C4=N\O)[nH]2)cc1 [SB590885, (E)-5-(2-(4-(2-(dimethylamino)ethoxy)phenyl)-4-(pyridin-4-yl)-1H-imidazol-5-yl)-2,3-dihydroinden-1-one oxime]
pIC50 (C-Raf): 8.76

CC(=O)Nc1cccc(-n2c(=O)n(C3CC3)c(=O)c3c(Nc4ccc(I)cc4F)n(C)c(=O)c(C)c32)c1 [Trametinib, N-(3-(3-cyclopropyl-5-(2-fluoro-4-iodophenylamino)-6,8-dimethyl-2,4,7-trioxo-3,4,6,7-tetrahydropyrido[4,3-d]pyrimidin-1(2H)-yl)phenyl)acetamide]
drug sensitivity in vitro: trametinib sensitivity (M019R; M019R, 8 days): insensitive
trametinib sensitivity (SKMEL2R): insensitive
trametinib sensitivity (SKMEL2): sensitive

CCCS(=O)(=O)Nc1ccc(F)c(C(=O)c2c[nH]c3ncc(-c4ccc(Cl)cc4)cc23)c1F [Vemurafenib, N-[3-[[5-(4-chlorophenyl)-1H-pyrrolo[2,3-b]pyridin-3-yl]carbonyl]-2,4-difluorophenyl]-1-propanesulfonamide]
pIC50 (MAP4K5 (KHS1)): 7.29

IgG1-AXL-107-vcMMAE
HuMax-AXL-ADC sensitivity (SKMEL28): did not show changes in viability
HuMax-AXL-ADC sensitivity (SKMEL28; listed as HuMax-AXL-ADC): Resistant
HuMax-AXL-ADC sensitivity (SKMEL28R): sensitive
HuMax-AXL-ADC sensitivity (SKMEL28R; listed as HuMax-AXL-ADC): Sensitive
HuMax-AXL-ADC sensitivity (A875): sensitive
HuMax-AXL-ADC sensitivity (A875; listed as HuMax-AXL-ADC): Sensitive
anti-tumor activity in the LCLC-103H xenograft model ([1]; 1 mg/kg (Example 13, FIG. 14B)): regression
anti-tumor activity in established SC LCLC-103H tumors ([1]; single injection 1 mg/kg intraperitoneally (Example 9)): tumor regression
growth of PAXF1657 tumors compared to the control group (PAXF1657 tumors; 2 mg/kg i.v.): significantly reduced the growth
growth of PAXF1657 tumors (PAXF1657 tumors; 4 mg/kg i.v.): induced tumor regression
anti-tumor activity in the A431 xenograft model (A431 tumors): growth inhibition
HuMax-AXL-ADC sensitivity (M082): did not show a different response
HuMax-AXL-ADC sensitivity (M082; listed as HuMax-AXL-ADC): Insensitive
HuMax-AXL-ADC sensitivity (COLO679): did not show changes in viability
HuMax-AXL-ADC sensitivity (COLO679; listed as HuMax-AXL-ADC): Resistant
anti-tumor activity in the SKMEL147 melanoma xenograft model (SKMEL147 tumors; 2 mg/kg i.v. on day 12 and day 19 after tumor cell injection): tumor growth inhibition
day until which tumor regression lasted (SKMEL147 tumors; 4 mg/kg): ~50 days
anti-tumor activity in the SKMEL147 melanoma xenograft model (SKMEL147 tumors; [2]): strong tumor regression
anti-tumor activity in the SKMEL147 melanoma xenograft model (SKMEL147 tumors; 4 mg/kg i.v. on day 12 and day 19 after tumor cell injection, listed as HuMax-AXL-ADC): profound anti-tumor effect
effect of retreatment after tumor regrowth (SKMEL147 tumors; single dose of 4 mg/kg on day 55, n=4): tumor regression in all four mice
HuMax-AXL-ADC sensitivity (M016): sensitive
HuMax-AXL-ADC sensitivity (M016; listed as HuMax-AXL-ADC): Sensitive
HuMax-AXL-ADC sensitivity (SKMEL147): sensitive
HuMax-AXL-ADC sensitivity (SKMEL147; listed as HuMax-AXL-ADC): Sensitive

IgG1-AXL-107: AXL-specific human IgG1,κ antibody, VH SEQ ID NO:1, VL SEQ ID NO:2, Ig1 domain binding
ADCC in A431 cells (percentage specific lysis) (A431 cells): did not induce significant ADCC
anti-tumor activity in the SKMEL147 melanoma xenograft model (SKMEL147 tumors; [2]): did not show tumor growth inhibition
